# Source: patent US12139520B2 (priority 2020, dated 2024)
# Numbered stars: 1 amine (or outer) side, 2 acyl side, 3 side chain; on linkers, the order of the positions; unused ones are H or OH. Bridge positions count the residues as written; N and C are the ends. Square brackets hold non-standard residues; d marks the D form. Peptide text beside a SMILES is read from it. * marks the point of attachment. C20 diacid = O=C(O)CCCCCCCCCCCCCCCCCCC(=O)*; γGlu = O=C(O)[C@H](CCC(=O)[*:2])N[*:1]; Hyp = O=C(O)[C@@H]1C[C@@H](O)CN1
# Target: T1, hAMY3 receptor (Homo sapiens, UniProt O60896+P30988)
# T1 sequence (P30988 25-474): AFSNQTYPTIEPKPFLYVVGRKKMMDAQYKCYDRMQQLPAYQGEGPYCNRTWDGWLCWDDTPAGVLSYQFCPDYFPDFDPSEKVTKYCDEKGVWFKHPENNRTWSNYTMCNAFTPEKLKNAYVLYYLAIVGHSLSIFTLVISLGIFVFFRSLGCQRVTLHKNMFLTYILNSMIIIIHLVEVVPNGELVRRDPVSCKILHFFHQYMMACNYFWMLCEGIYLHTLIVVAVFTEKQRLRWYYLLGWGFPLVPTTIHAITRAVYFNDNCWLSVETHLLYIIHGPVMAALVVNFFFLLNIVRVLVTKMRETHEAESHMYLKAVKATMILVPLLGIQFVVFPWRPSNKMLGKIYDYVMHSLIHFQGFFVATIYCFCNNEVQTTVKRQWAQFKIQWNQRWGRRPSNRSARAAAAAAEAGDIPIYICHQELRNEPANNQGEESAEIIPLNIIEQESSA
# T1 sequence (O60896 24-148 partner): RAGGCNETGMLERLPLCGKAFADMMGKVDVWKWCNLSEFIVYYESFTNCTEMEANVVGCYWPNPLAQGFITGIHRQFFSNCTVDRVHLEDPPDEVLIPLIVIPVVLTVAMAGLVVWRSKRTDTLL
# Assay: cAMP assay for in vitro receptor activation, hAMY3-R
# Type: cell-based
# Conditions: cAMP assay, hAMY3 receptor; read-out: hAMY3R EC50
# Summary of the method: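 Thawed cells from a sub-cloned monoclonal hAMY3-overexpressing line are plated in DPBS containing 0.05% casein and 0.5 mM IBMX. Test compounds are added immediately at graded doses for 30 min at room temperature. Reagents for cAMP detection are then added, and TR-FRET is recorded after one hour.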
row,EC50 [pM],Structure (SMILES)
1,126,CC(C)C[C@H](NC(=O)[C@H](CCCNC(=N)N)NC(=O)[C@H](CCC(N)=O)NC(=O)[C@@H](NC(=O)[C@@H](NC(=O)[C@@H]1CSSC[C@H](NC(=O)CNC(=O)CC[C@H](NC(=O)CCCCCCCCCCCCCCCCCCC(=O)O)C(=O)O)C(=O)N[C@@H](CCCNC(=N)N)C(=O)N[C@@H](Cc2ccccc2)C(=O)NCC(=O)N[C@@H]([C@@H](C)O)C(=O)N1)[C@@H](C)O)C(C)C)C(=O)N[C@@H](C)C(=O)N[C@@H](Cc1c[nH]cn1)C(=O)N[C@@H](Cc1ccccc1)C(=O)N[C@@H](CC(C)C)C(=O)N[C@@H](Cc1ccc(O)cc1)C(=O)N[C@@H](CCC(N)=O)C(=O)N[C@@H](Cc1ccccc1)C(=O)N[C@H](C(=O)N[C@@H](CC(=O)O)C(=O)N[C@@H](CCCCN)C(=O)N[C@@H](CC(=O)O)C(=O)N[C@@H](CCCCN)C(=O)N[C@@H](CC(=O)O)C(=O)N[C@@H](CC(N)=O)C(=O)N[C@H](C(=O)N[C@@H](C)C(=O)N1CCC[C@H]1C(=O)N[C@@H](CCCNC(=N)N)C(=O)N[C@H](C(=O)N[C@@H](CC(N)=O)C(=O)N[C@H](C(=O)NCC(=O)N1CCC[C@H]1C(=O)N[C@@H](CCC(N)=O)C(=O)NCC(=O)N[C@@H](Cc1ccc(O)cc1)C(N)=O)C(C)C)[C@@H](C)O)C(C)C)[C@@H](C)O [compound 200] ({C20 diacid-γGlu}-GCRFGTCTVQRLAHFLYQFTDKDKDNVAPRTNVGPQGY-NH2; disulfide 2-7)
2,19,CC[C@H](C)[C@H](NC(=O)[C@H](CCC(N)=O)NC(=O)[C@H](Cc1c[nH]cn1)NC(=O)[C@H](C)NC(=O)[C@H](CC(C)C)NC(=O)[C@H](CCCNC(=N)N)NC(=O)[C@H](C)NC(=O)[C@@H](NC(=O)[C@@H](NC(=O)[C@@H]1CSSC[C@H](NC(=O)[C@H](CCCCN)NC(=O)CC[C@H](NC(=O)CCCCCCCCCCCCCCCCCCC(=O)O)C(=O)O)C(=O)N[C@@H](CC(N)=O)C(=O)N[C@@H]([C@@H](C)O)C(=O)N[C@@H](C)C(=O)N[C@@H]([C@@H](C)O)C(=O)N1)[C@@H](C)O)C(C)C)C(=O)N[C@@H](C)C(=O)N[C@@H](CCC(N)=O)C(=O)N[C@@H](Cc1ccccc1)C(=O)N[C@H](C(=O)N[C@@H](CC(=O)O)C(=O)N[C@@H](CCCCN)C(=O)N[C@@H](CC(=O)O)C(=O)N[C@@H](CCCCN)C(=O)N[C@@H](CC(=O)O)C(=O)N[C@@H](CC(N)=O)C(=O)N[C@H](C(=O)N[C@@H](C)C(=O)N1CCC[C@H]1C(=O)N1CCC[C@H]1C(=O)N[C@H](C(=O)N[C@@H](CC(N)=O)C(=O)N[C@H](C(=O)NCC(=O)N[C@@H](CO)C(=O)N[C@@H](CC(N)=O)C(=O)NCC(=O)N1C[C@H](O)C[C@H]1C(N)=O)C(C)C)[C@@H](C)O)C(C)C)[C@@H](C)O [compound 107] ({C20 diacid-γGlu}-KCNTATCTVARLAHQIAQFTDKDKDNVAPPTNVGSNG[Hyp]-NH2; disulfide 2-7)
3,7,CC[C@H](C)[C@H](NC(=O)[C@H](CCC(N)=O)NC(=O)[C@H](Cc1c[nH]cn1)NC(=O)[C@H](C)NC(=O)[C@H](CC(C)C)NC(=O)[C@H](CCCNC(=N)N)NC(=O)[C@H](CCC(N)=O)NC(=O)[C@@H](NC(=O)[C@@H](NC(=O)[C@@H]1CSSC[C@H](NC(=O)[C@@H](N)CCCCN)C(=O)N[C@@H](CC(N)=O)C(=O)N[C@@H](Cc2ccccc2)C(=O)N[C@@H](C)C(=O)N[C@@H]([C@@H](C)O)C(=O)N1)[C@@H](C)O)C(C)C)C(=O)N[C@@H](Cc1ccc(O)cc1)C(=O)N[C@@H](CCC(N)=O)C(=O)N[C@@H](Cc1ccccc1)C(=O)N[C@H](C(=O)N[C@@H](CC(=O)O)C(=O)N[C@@H](CCCCN)C(=O)N[C@@H](CC(=O)O)C(=O)N[C@@H](CCCCN)C(=O)N[C@@H](CC(=O)O)C(=O)N[C@@H](CC(N)=O)C(=O)N[C@H](C(=O)N[C@@H](C)C(=O)N1CCC[C@H]1C(=O)N1CCC[C@H]1C(=O)N[C@H](C(=O)N[C@@H](CCC(=O)O)C(=O)N[C@H](C(=O)NCC(=O)N[C@@H](CO)C(=O)N[C@@H](CC(N)=O)C(=O)NCC(=O)N1C[C@H](O)C[C@H]1C(N)=O)C(C)C)[C@@H](C)O)C(C)C)[C@@H](C)O [compound 10] (H-KCNFATCTVQRLAHQIYQFTDKDKDNVAPPTEVGSNG[Hyp]-NH2; disulfide 2-7; N-terminus assumed)
